From ChEMBL document CHEMBL1152578, “Inhibition of ribonuclease A by nucleoside-dibasic acid conjugates” (Bioorg Med Chem, 2009)
The source made the active and inactive calls. The calls are words filed in the database; no cut-off is given here.

Assays:
[1] = biological target: T1, Ribonuclease pancreatic (Homo sapiens, UniProt P07998); assay: Inhibition of RNase A using dixon plot by spectrophotometric method
T1 sequence (P07998 whole entry): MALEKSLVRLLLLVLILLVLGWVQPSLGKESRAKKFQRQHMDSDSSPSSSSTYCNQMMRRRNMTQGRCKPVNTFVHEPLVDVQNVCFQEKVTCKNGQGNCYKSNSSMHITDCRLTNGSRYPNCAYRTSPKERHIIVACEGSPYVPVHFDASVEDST

[2] = biological target: T2, Ribonuclease pancreatic (Homo sapiens) (UniProt P07998); assay: Inhibition of RNase A at 1.5 mM by precipitation assay
T2 sequence (whole entry): T1 sequence (P07998 whole entry)

[3] = biological target: T2, Ribonuclease pancreatic (Homo sapiens); assay: Inhibition of RNase A assessed as degradation of tRNA by agarose gel assay

Cc1cn([C@H]2C[C@H](NC(=O)CC(=O)O)[C@@H](CO)O2)c(=O)[nH]c1=O
Ki [1]: 380 µM

Cc1cn([C@H]2C[C@H](NC(=O)CCC(=O)O)[C@@H](CO)O2)c(=O)[nH]c1=O
Ki [1]: 918 µM

Cc1cn([C@H]2C[C@H](NC(=O)C(=O)O)[C@@H](CO)O2)c(=O)[nH]c1=O
inhibition [2]: Active | Activity [3]: Active | Ki [1]: 132 µM
